One experiment has as its target T1, Caspase-1 (Homo sapiens) (UniProt P29466).
T1 sequence (whole entry): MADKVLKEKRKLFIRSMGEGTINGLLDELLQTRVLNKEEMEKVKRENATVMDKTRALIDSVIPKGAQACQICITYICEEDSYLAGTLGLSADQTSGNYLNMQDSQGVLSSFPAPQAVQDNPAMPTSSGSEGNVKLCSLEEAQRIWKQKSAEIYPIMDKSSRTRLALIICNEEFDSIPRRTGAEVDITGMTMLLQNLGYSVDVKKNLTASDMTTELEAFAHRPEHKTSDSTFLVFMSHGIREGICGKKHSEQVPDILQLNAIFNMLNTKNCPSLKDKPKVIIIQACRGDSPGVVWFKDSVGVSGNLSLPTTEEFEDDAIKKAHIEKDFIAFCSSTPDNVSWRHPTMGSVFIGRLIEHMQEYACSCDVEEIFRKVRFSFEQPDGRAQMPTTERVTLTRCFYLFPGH
Kind of experiment: Inhibition of interleukin-1-beta converting enzyme at pH 7.4, 37 degree C.

For experiment [1], the target named is T2, Calpain-1 catalytic subunit (Homo sapiens) (UniProt P07384).
T2 sequence (whole entry): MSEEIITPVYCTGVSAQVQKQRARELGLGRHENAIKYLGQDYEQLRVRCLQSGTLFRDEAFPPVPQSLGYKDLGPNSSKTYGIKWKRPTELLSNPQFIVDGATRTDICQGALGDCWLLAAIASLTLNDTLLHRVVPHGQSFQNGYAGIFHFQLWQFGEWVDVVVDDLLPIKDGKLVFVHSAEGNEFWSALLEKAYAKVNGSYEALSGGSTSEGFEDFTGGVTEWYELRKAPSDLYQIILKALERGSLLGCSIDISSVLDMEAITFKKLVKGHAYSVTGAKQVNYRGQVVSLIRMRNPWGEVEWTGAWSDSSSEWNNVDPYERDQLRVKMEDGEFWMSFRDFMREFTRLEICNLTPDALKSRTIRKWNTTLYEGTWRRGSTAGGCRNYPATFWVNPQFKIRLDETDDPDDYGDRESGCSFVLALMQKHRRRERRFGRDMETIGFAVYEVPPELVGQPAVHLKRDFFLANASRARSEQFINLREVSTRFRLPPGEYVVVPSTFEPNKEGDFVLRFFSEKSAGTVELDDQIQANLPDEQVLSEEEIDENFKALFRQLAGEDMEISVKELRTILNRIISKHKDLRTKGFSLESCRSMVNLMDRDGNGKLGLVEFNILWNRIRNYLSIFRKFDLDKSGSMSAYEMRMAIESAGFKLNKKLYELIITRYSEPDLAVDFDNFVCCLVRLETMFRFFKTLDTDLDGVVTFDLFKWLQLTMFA
Kind of experiment: Inhibition of Human erythrocyte calpain 1 using a continuous assay at pH 7.5 and 8 degrees Centigrade.

Experiment [2] has as its target Cathepsin B (Homo sapiens) (UniProt P07858). Kind of experiment: Inhibition of Cathepsin B at pH 6.5 and 25 degrees Centigrade.
For experiment [3] the target is unchanged. Kind of experiment: Inhibition of Cathepsin B at pH 6.5 and 360000 (1/M 1/s) at 8 degrees Centigrade.
The target is the same in experiment [4]. Kind of experiment: Inhibition of Cathepsin B at 8 degrees Centigrade.
The target in experiment [5] is Procathepsin L (Homo sapiens) (UniProt P07711). Kind of experiment: Inhibitory activity against Cathepsin L at 8 degrees Centigrade.
Chain of Procathepsin L (Homo sapiens) (P07711 114-333 limits assumed): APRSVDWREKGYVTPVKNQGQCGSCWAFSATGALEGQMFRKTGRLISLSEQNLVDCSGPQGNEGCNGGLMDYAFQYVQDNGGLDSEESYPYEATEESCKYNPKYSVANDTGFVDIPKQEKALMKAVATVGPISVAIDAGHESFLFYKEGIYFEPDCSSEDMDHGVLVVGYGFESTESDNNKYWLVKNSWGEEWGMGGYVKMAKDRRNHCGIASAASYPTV
Experiment [6] concerns the target T2, Calpain-1 catalytic subunit (Homo sapiens). Kind of experiment: Inhibition of Human erythrocyte calpain 1 using a continuous assay at pH 7.5 and 8 degrees Centigrade.
Experiment [7] deals with Cathepsin B (Homo sapiens) (UniProt P07858). Kind of experiment: Inhibition of Cathepsin B at pH 6.5 and 250 (1/M 1/s) 8 degrees Centigrade.

With `CC(C)[C@@H](NC(=O)OCc1ccccc1)C(=O)N[C@@H](CC(=O)O)C(=O)COC(=O)c1c(Cl)cccc1Cl`, at Caspase-1 (Homo sapiens), the K obs / 1 stood at 30000 M⁻¹ s⁻¹.

As to `CC(C)C[C@@H](NC(=O)OCc1ccccc1)C(=O)N[C@@H](Cc1ccccc1)C(=O)COP(=O)(c1ccccc1)c1ccccc1`, the K obs / 1 in experiment [1] is 10000 M⁻¹ s⁻¹; in experiment [2], under 500 M⁻¹ s⁻¹; on Caspase-1 (Homo sapiens), under 500 M⁻¹ s⁻¹. Turning to `CC(C)[C@@H](NC(=O)OCc1ccccc1)C(=O)N[C@@H](CC(=O)O)C(=O)CO[PH](=O)c1ccccc1` (some centres not stated), the K obs / 1 at Caspase-1 (Homo sapiens) is under 500 M⁻¹ s⁻¹. For `C[C@H](NC(=O)[C@@H](Cc1ccccc1)NC(=O)OCc1ccccc1)C(=O)COP(=O)(c1ccccc1)c1ccccc1`, the figures for the K obs / 1 (in experiment [2]; on Caspase-1 (Homo sapiens)) were 400000 M⁻¹ s⁻¹ and under 500 M⁻¹ s⁻¹, respectively. In the case of `CC(C)[C@@H](NC(=O)OCc1ccccc1)C(=O)N[C@@H](CC(=O)O)C(=O)COP(=O)(c1ccccc1)c1ccccc1`, the K obs / 1 was under 500 M⁻¹ s⁻¹ in experiment [2] and 50200 M⁻¹ s⁻¹ at Caspase-1 (Homo sapiens).

Turning to `CC(C)[C@H](NC(=O)OCc1ccccc1)C(=O)N[C@@H](C)C(=O)N[C@@H](CC(=O)O)C(=O)COP(=O)(c1ccccc1)c1ccccc1`, the K obs / 1 in experiment [2] came out at 1700 M⁻¹ s⁻¹. As for `C[C@H](NC(=O)[C@@H](Cc1ccccc1)NC(=O)OCc1ccccc1)C(=O)COC(=O)c1c(Cl)cccc1Cl`, the results for the K obs / 1 (in experiment [3]; in experiment [1]; on Caspase-1 (Homo sapiens)) were 1.5e+06 M⁻¹ s⁻¹, 300 M⁻¹ s⁻¹ and under 500 M⁻¹ s⁻¹, respectively.

On to `CC(C)[C@@H](NC(=O)OCc1ccccc1)C(=O)N[C@@H](CC(=O)O)C(=O)COc1cc(C(F)(F)F)nn1-c1ccccc1`, for which the K obs / 1 in experiment [2] was under 500 M⁻¹ s⁻¹; on Caspase-1 (Homo sapiens) it was 20000 M⁻¹ s⁻¹.

With `CC(C)[C@@H](NC(=O)OCc1ccccc1)C(=O)N[C@@H](CC(=O)O)C(=O)COP(=O)(c1ccc(Cl)cc1)c1ccc(Cl)cc1`, at Caspase-1 (Homo sapiens), the K obs / 1 was 77300 M⁻¹ s⁻¹. Take `CC(C)C[C@@H](NC(=O)[C@@H](C)NC(=O)OCc1ccccc1)C(=O)N[C@H](Cc1ccccc1)C(=O)COC(=O)c1c(F)ccc(OCCN2CCOCC2)c1F`: the K obs / 1 was determined as 32000 M⁻¹ s⁻¹ in experiment [1], 400 M⁻¹ s⁻¹ in experiment [4] and 28000 M⁻¹ s⁻¹ in experiment [5].

For the compound `CC(C)C[C@@H](NC(=O)OCc1ccccc1)C(=O)N[C@@H](Cc1ccccc1)C(=O)COc1cc(C(F)(F)F)nn1-c1ccccc1`, the K obs / 1 in experiment [6] and in experiment [2] was under 500 M⁻¹ s⁻¹ in each case. For `CC(C)C[C@@H](NC(=O)OCc1ccccc1)C(=O)N[C@@H](Cc1ccccc1)C(=O)COC(=O)c1c(Cl)cccc1Cl`, the figures for the K obs / 1 in experiment [6] and in experiment [7] were 11400 M⁻¹ s⁻¹ and under 1000 M⁻¹ s⁻¹, respectively. `C[C@H](NC(=O)[C@@H](Cc1ccccc1)NC(=O)OCc1ccccc1)C(=O)COc1cc(C(F)(F)F)nn1-c1ccccc1`: the K obs / 1 was under 500 M⁻¹ s⁻¹ in experiment [6], 2300 M⁻¹ s⁻¹ in experiment [2] and under 500 M⁻¹ s⁻¹ at Caspase-1 (Homo sapiens). In turn, `O=C(O)C[C@H](NC(=O)OCc1ccccc1)C(=O)COP(=O)(c1ccccc1)c1ccccc1` yielded a K obs / 1 at Caspase-1 (Homo sapiens) of 11800 M⁻¹ s⁻¹. The same measure, in the same setting: to `CC(C)[C@@H](NC(=O)OCc1ccccc1)C(=O)N[C@@H](CC(=O)O)C(=O)COP(C)(C)=O` belongs 12300 M⁻¹ s⁻¹. Take `CC(C)C[C@@H](NC(=O)[C@@H](C)NC(=O)OCc1ccccc1)C(=O)N[C@H](Cc1ccccc1)C(=O)COC(=O)c1c(F)cccc1F`: the values for the K obs / 1 in experiment [1], in experiment [4] and in experiment [5] were 31000 M⁻¹ s⁻¹, 100 M⁻¹ s⁻¹ and 300 M⁻¹ s⁻¹, respectively. As to `CC(C)[C@H](NC(=O)OCc1ccccc1)C(=O)N[C@@H](C)C(=O)N[C@@H](CC(=O)O)C(=O)COP(=O)(c1ccc(Cl)cc1)c1ccc(Cl)cc1`, on Caspase-1 (Homo sapiens), the K obs / 1 was 230000 M⁻¹ s⁻¹.

For the origin of these results see ChEMBL document CHEMBL1128565, “Aspartyl alpha-((diphenylphosphinyl)oxy)methyl ketones as novel inhibitors of interleukin-1 beta converting enzyme. Utility of the diphenylphosphinic acid leaving group for the inhibition of cysteine proteases” (J Med Chem, 1995).
